The results in this text go back to ChEMBL document CHEMBL1152052, “Probing the P3 pocket of stromelysin with piperazic acid analogs” (Bioorg Med Chem Lett, 1995).

A word on the IC50: it is the concentration that gives 50% inhibition.

For the assay, the target named is Stromelysin-1 (Homo sapiens, UniProt P08254). The experiment in a line: Inhibition of matrix metalloprotease-3 (MMP-3).
Sequence of Stromelysin-1 (P08254 whole entry): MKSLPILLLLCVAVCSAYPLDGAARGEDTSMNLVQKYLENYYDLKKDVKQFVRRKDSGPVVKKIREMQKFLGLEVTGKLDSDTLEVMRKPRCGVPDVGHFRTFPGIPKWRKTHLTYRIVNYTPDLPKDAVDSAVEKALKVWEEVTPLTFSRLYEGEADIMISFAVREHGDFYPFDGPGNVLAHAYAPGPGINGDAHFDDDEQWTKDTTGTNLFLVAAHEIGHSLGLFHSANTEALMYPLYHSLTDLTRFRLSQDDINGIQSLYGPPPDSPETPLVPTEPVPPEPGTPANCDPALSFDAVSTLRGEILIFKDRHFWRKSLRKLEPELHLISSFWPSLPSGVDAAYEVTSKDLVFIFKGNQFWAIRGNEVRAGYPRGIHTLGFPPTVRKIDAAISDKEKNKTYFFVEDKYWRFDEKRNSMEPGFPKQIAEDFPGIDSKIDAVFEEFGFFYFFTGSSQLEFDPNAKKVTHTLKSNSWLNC
In turn, `CC(C)C[C@H](CC(=O)NO)C(=O)N1NCCC[C@H]1CO` gave an IC50 of 2700 nM. In other words, the single-digit micromolar range.

The molecule `COC[C@@H]1CCCNN1C(=O)[C@@H](CC(=O)NO)CC(C)C` displayed a concentration for half-maximal inhibition (IC50) of 20400 nM.

`CCCCC[C@H](CC(=O)NO)C(=O)N1NCCC[C@H]1C(=O)N[C@@H](C(=O)CC)C(C)CC` (stereo partly specified) had a half-inhibitory concentration (IC50) of 300 nM. This IC50 is about 68-fold lower than that of the molecule before.

`COC(=O)[C@@H]1CCCNN1C(=O)[C@@H](CC(=O)NO)CC(C)C` yielded an IC50 of 810 nM.

`CC(C)C[C@H](CC(=O)NO)C(=O)N1CCCCN1`: the IC50 amounted to 9670 nM. Compared with the last molecule, the IC50 is about 12-fold higher.

`CC(C)C[C@H](CC(=O)NO)C(=O)N1NCCC[C@H]1C(=O)O` returned an IC50 of 600 nM.
